Assay results reported in patent US10376520B2, “Methods for the treatment of cardiovascular disorders” (Galapagos NV, priority 2015, dated 2019).

Tested on: Subjects With Active Crohn's Disease
Test: [HDL] determination, Study 5 (Crohn's disease)
Format: in vivo, human
Details: for [HDL] Mean CFB - 10 weeks results: 200 mg q.d.
From the text: Double-Blind, Randomized, Placebo-Controlled, Multi-Centre Study to Investigate the Efficacy and Safety of Compound 1 in Subjects With Active Crohn's Disease With Evidence of Mucosal Ulceration.
This is a double-blind, randomized, placebo-controlled, multi-centre Phase 2 study to investigate the efficacy and safety of Compound 1 administered once daily for the treatment of active CD with evidence of mucosal ulceration. The pharmacokinetics (including a PK substudy) and pharmacodynamics of Compound 1 and metabolite in CD will also be characterised.
A total of 180 eligible subjects will be randomized to receive Compound 1 or placebo in addition to their stable background treatment (eg, corticosteroids, aminosalicylates, or CD-related antibiotics). The study will consist of 2 parts, with total treatment duration of 20 weeks. Randomization in Part 1 will be stratified according the subject's previous anti-TNF exposure/response, CRP level at Screening, and oral corticosteroid use at visit Day −1.
After the first 10 weeks of treatment in Part 1, patients will be re-randomized for Part 2 as shown in the diagram below and will be stratified according to the subject's clinical response, previous anti-TNF exposure/response, and oral corticosteroid use at visit Day −1.
The following assays were conducted at Eurofins Global Central Laboratory, Bergschot 71, 4817 PA Breda, The Netherlands, and at Quest Diagnostics, Clinical Trials, Quest House, 125-135 Staines Road, Hounslow, Middlesex, TW3 3JB, United Kingdom. The assays for Study 5 were performed at BARC Europe, 3B, Industrie Park, Zwijnaarde, B-9052 Ghent, Belgium.
This assay relies on a homogeneous enzymatic colorimetric test. In the presence of magnesium ions, dextran sulfate selectively forms water-soluble complexes with LDL, VLDL and chylomicrons which are resistant to PEG-modified enzymes.
The cholesterol concentration of [HDL]-cholesterol is determined enzymatically by cholesterol esterase and cholesterol oxidase coupled with PEG to the amino groups (approx. 40%).
In the presence of peroxidase, the hydrogen peroxide generated reacts with 4-amino-antipyrine and Sodium N-(2-hydroxy-3-sulfopropyl)-3,5-dimethoxyaniline (HSDA) to form a purple-blue dye. The color intensity of this dye is directly proportional to the cholesterol concentration and is measured photometrically.
Human serum and plasma samples [HDL] determination was done on a Roche/Hitachi Cobas c 701/702 system which automatically calculate the analyte concentration of each sample. Samples containing precipitates are centrifuged before performing the assay.

[1] = 200 mg q.d. week 0 to 10, to 100 mg q.d. week 10 to 20, week 4
[2] = 200 mg q.d. week 0 to 10, to 100 mg q.d. week 10 to 20, week 6
[3] = 200 mg q.d. week 0 to 10, to 100 mg q.d. week 10 to 20, week 10
[4] = 200 mg q.d. week 0 to 10, to 100 mg q.d. week 10 to 20, week 12
[5] = 200 mg q.d. week 0 to 10, to 100 mg q.d. week 10 to 20, week 16
[6] = 200 mg q.d. week 0 to 10, to 100 mg q.d. week 10 to 20, week 20
[7] = 200 mg q.d. week 0 to 10, to placebo week 10 to 20, week 2
[8] = 200 mg q.d. week 0 to 10, to placebo week 10 to 20, week 4
[9] = 200 mg q.d. week 0 to 10, to placebo week 10 to 20, week 6
[10] = 200 mg q.d. week 0 to 10, to placebo week 10 to 20, week 10
[11] = 200 mg q.d. week 0 to 10, to placebo week 10 to 20, week 12
[12] = 200 mg q.d. week 0 to 10, to placebo week 10 to 20, week 16
[13] = 200 mg q.d. week 0 to 10, to placebo week 10 to 20, week 20
[14] = continued 200 mg q.d. (N = 77), week 2
[15] = continued 200 mg q.d. (N = 77), week 4
[16] = continued 200 mg q.d. (N = 77), week 6
[17] = continued 200 mg q.d. (N = 77), week 10
[18] = continued 200 mg q.d. (N = 77), week 12
[19] = continued 200 mg q.d. (N = 77), week 16
[20] = continued 200 mg q.d. (N = 77), week 20
[21] = placebo week 0 to 10, then 100 mg q.d. (N = 22), week 12
[22] = placebo week 0 to 10, then 100 mg q.d. (N = 22), week 16
[23] = placebo week 0 to 10, then 100 mg q.d. (N = 22), week 20
[24] = placebo week 0 to 10, to 100 mg q.d. week 10 to 20, week 12
[25] = placebo week 0 to 10, to 100 mg q.d. week 10 to 20, week 16
[26] = placebo week 0 to 10, to 100 mg q.d. week 10 to 20, week 20

O=C(Nc1nc2cccc(-c3ccc(CN4CCS(=O)(=O)CC4)cc3)n2n1)C1CC1 [Compound 1, cyclopropanecarboxylic acid {5-[4-(1,1-dioxo-thiomorpholin-4-ylmethyl)-phenyl]-[1,2,4]triazolo[1,5-a]pyridin-2yl}-amide]
[HDL] Mean CFB - 20 weeks results [1]: 25.33%
[HDL] Median CFB - 10 weeks results [1]: 16.75%
[HDL] Mean CFB - 20 weeks results [2]: 25.93%
[HDL] Median CFB - 10 weeks results [2]: 23.04%
[HDL] Mean CFB - 20 weeks results [3]: 26.29%
[HDL] Median CFB - 10 weeks results [3]: 19.61%
[HDL] Mean CFB - 20 weeks results [4]: 14.27%
[HDL] Median CFB - 10 weeks results [4]: 10.66%
[HDL] Mean CFB - 20 weeks results [5]: 11.19%
[HDL] Median CFB - 10 weeks results [5]: 2.24%
[HDL] Mean CFB - 20 weeks results [6]: 15.54%
[HDL] Median CFB - 10 weeks results [6]: 10.18%
[HDL] Mean CFB - 20 weeks results [7]: 13.75%
[HDL] Median CFB - 10 weeks results [7]: 13.54%
[HDL] Mean CFB - 20 weeks results [8]: 23.62%
[HDL] Median CFB - 10 weeks results [8]: 27.96%
[HDL] Mean CFB - 20 weeks results [9]: 13.52%
[HDL] Median CFB - 10 weeks results [9]: 13.45%
[HDL] Mean CFB - 20 weeks results [10]: 14.87%
[HDL] Median CFB - 10 weeks results [10]: 15.66%
[HDL] Mean CFB - 20 weeks results [11]: −3.87%
[HDL] Median CFB - 10 weeks results [11]: −1.75%
[HDL] Mean CFB - 20 weeks results [12]: −7.46%
[HDL] Median CFB - 10 weeks results [12]: −3.07%
[HDL] Mean CFB - 20 weeks results [13]: −8.40%
[HDL] Median CFB - 10 weeks results [13]: −4.82%
[HDL] Mean CFB - 10 weeks results (week 2): 17.940%
[HDL] Mean CFB - 10 weeks results (week 4): 19.414%
[HDL] Mean CFB - 10 weeks results (week 6): 20.199%
[HDL] Mean CFB - 10 weeks results (week 10): 19.734%
[HDL] Mean CFB - 20 weeks results [14]: 0.23 mmol/L
[HDL] Median CFB - 20 weeks results [14]: 0.21 mmol/L
[HDL] Mean CFB - 20 weeks results [15]: 0.18 mmol/L
[HDL] Median CFB - 20 weeks results [15]: 0.16 mmol/L
[HDL] Mean CFB - 20 weeks results [16]: 0.24 mmol/L
[HDL] Median CFB - 20 weeks results [16]: 0.21 mmol/L
[HDL] Mean CFB - 20 weeks results [17]: 0.22 mmol/L
[HDL] Median CFB - 20 weeks results [17]: 0.25 mmol/L
[HDL] Mean CFB - 20 weeks results [18]: 0.20 mmol/L
[HDL] Median CFB - 20 weeks results [18]: 0.15 mmol/L
[HDL] Mean CFB - 20 weeks results [19]: 0.17 mmol/L
[HDL] Median CFB - 20 weeks results [19]: 0.20 mmol/L
[HDL] Mean CFB - 20 weeks results [20]: 0.10 mmol/L
[HDL] Median CFB - 20 weeks results [20]: 0.15 mmol/L
[HDL] Mean CFB - 20 weeks results [21]: 0.03 mmol/L
[HDL] Median CFB - 20 weeks results [21]: 0.12 mmol/L
[HDL] Mean CFB - 20 weeks results [22]: 0.09 mmol/L
[HDL] Median CFB - 20 weeks results [22]: 0.12 mmol/L
[HDL] Mean CFB - 20 weeks results [23]: 0.00 mmol/L
[HDL] Median CFB - 20 weeks results [23]: 0.10 mmol/L
[HDL] Mean CFB - 20 weeks results [24]: 5.75%
[HDL] Median CFB - 10 weeks results [24]: 8.64%
[HDL] Mean CFB - 20 weeks results [25]: 10.06%
[HDL] Median CFB - 10 weeks results [25]: 8.63%
[HDL] Mean CFB - 20 weeks results [26]: 3.77%
[HDL] Median CFB - 10 weeks results [26]: 11.27%
